In PubChem BioAssay AID330 (DTP/NCI, 2004):
“And” between values parts separate entries of the source, which are not always exact repeats. Identical values can stand only once. Inconclusive results and toxic doses are left out. How the source made its calls: active means survival T/C of 150% or more; inactive means T/C below 125% in these data.

Tested on: P388 leukemia ip, CD2F1 mice, survival T/C
Assay: NCI In Vivo Anticancer Drug Screen. Data for tumor model P388 Leukemia (intraperitoneal) in CD2F1 (CDF1) mice
Settings: endpoint: median survival time, higher = longer survival
Procedure, shortened: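 Mice carrying the transplanted tumor received test compound or vehicle. Survival was recorded in each group, and the value is the treated-group measurement divided by that of the vehicle-treated control group.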

[1] = dose: 50.0 mg/kg/injection, schedule: Q01DX009 (ip), vehicle: Klucel (hydroxypropylcellulose) (HPC)
[2] = dose: 100.0 mg/kg/injection, schedule: Q01DX009 (ip), vehicle: Klucel (hydroxypropylcellulose) (HPC)
[3] = dose: 200.0 mg/kg/injection, schedule: Q01DX009 (ip), vehicle: Klucel (hydroxypropylcellulose) (HPC)
[4] = dose: 50.0 mg/kg/injection, schedule: Q01DX005 (ip), vehicle: Klucel (hydroxypropylcellulose) (HPC)
[5] = dose: 100.0 mg/kg/injection, schedule: Q01DX005 (ip), vehicle: Klucel (hydroxypropylcellulose) (HPC)
[6] = dose: 100.0 mg/kg/injection, schedule: Q01DX009 (ip), vehicle: saline
[7] = dose: 200.0 mg/kg/injection, schedule: Q01DX009 (ip), vehicle: saline
[8] = dose: 50.0 mg/kg/injection, schedule: Q01DX009 (ip), vehicle: saline with Tween-80
[9] = dose: 100.0 mg/kg/injection, schedule: Q01DX009 (ip), vehicle: saline with Tween-80
[10] = dose: 200.0 mg/kg/injection, schedule: Q01DX009 (ip), vehicle: saline with Tween-80
[11] = dose: 12.5 mg/kg/injection, schedule: Q01DX009 (ip), vehicle: saline with Tween-80
[12] = dose: 25.0 mg/kg/injection, schedule: Q01DX009 (ip), vehicle: saline with Tween-80
[13] = dose: 12.5 mg/kg/injection, schedule: Q01DX009 (ip), vehicle: Klucel (hydroxypropylcellulose) (HPC)
[14] = dose: 25.0 mg/kg/injection, schedule: Q01DX009 (ip), vehicle: Klucel (hydroxypropylcellulose) (HPC)
[15] = dose: 60.0 mg/kg/injection, schedule: Q01DX005 (ip), vehicle: saline with Tween-80
[16] = dose: 120.0 mg/kg/injection, schedule: Q01DX005 (ip), vehicle: saline with Tween-80
[17] = dose: 240.0 mg/kg/injection, schedule: Q01DX005 (ip), vehicle: saline with Tween-80
[18] = dose: 50.0 mg/kg/injection, schedule: Q01DX005 (ip), vehicle: saline with Tween-80
[19] = dose: 100.0 mg/kg/injection, schedule: Q01DX005 (ip), vehicle: saline with Tween-80
[20] = dose: 200.0 mg/kg/injection, schedule: Q01DX005 (ip), vehicle: saline with Tween-80
[21] = dose: 120.0 mg/kg/injection, schedule: Q01DX005 (ip), vehicle: saline
[22] = dose: 100.0 mg/kg/injection, schedule: Q01DX009 (ip), vehicle: suspension in saline
[23] = dose: 200.0 mg/kg/injection, schedule: Q01DX009 (ip), vehicle: suspension in saline

Measured: T/C

Cc1ccc(Cl)c(NC(=S)NCc2cccnc2)c1
inactive: [1] 97 % of control | [2] 103 % of control | [3] 108 % of control

Cn1cnc2ncnc(NCc3ccccc3Cl)c21
inactive: dose: 6.25 mg/kg/injection, schedule: Q04DX003 (ip), vehicle: saline with Tween-80 93 % of control | dose: 12.5 mg/kg/injection, schedule: Q04DX003 (ip), vehicle: saline with Tween-80 94 % of control | dose: 25.0 mg/kg/injection, schedule: Q04DX003 (ip), vehicle: saline with Tween-80 94 % of control | dose: 50.0 mg/kg/injection, schedule: Q04DX003 (ip), vehicle: saline with Tween-80 91 % of control

C=C(Cl)CC(N)C(=O)O (stereo not given)
inactive: [4] 104 % of control | [5] 104 % of control

CCCC(C(=O)OC(C)CN1C(C)CCC1C)C1CCCC1 (stereo not given)
inactive: [6] 112 % of control | [7] 103 % of control | dose: 400.0 mg/kg/injection, schedule: Q01DX009 (ip), vehicle: saline 108 % of control

CCCCCCCCCCCCCCCCS(=O)(=O)CCO
inactive: [8] 95 % of control | [9] 90 % of control | [10] 86 % of control

COc1ccc2c3c1OC1C(O)C=CC4C(C2)N(C)CCC341 (stereo not given)
inactive: dose: 3.12 mg/kg/injection, schedule: Q01DX009 (ip), vehicle: saline with Tween-80 102 % of control | dose: 6.25 mg/kg/injection, schedule: Q01DX009 (ip), vehicle: saline with Tween-80 105 % of control | [11] 112 % of control | [12] 114 % of control

CS(=O)(=O)N1CC=CCS1=O (stereo not given)
inactive: dose: 6.25 mg/kg/injection, schedule: Q01DX009 (ip), vehicle: Klucel (hydroxypropylcellulose) (HPC) 103 % of control | [13] 108 % of control | [14] 108 % of control

COc1cc(NC(C)CCCN)c2ncccc2c1Oc1ccc(Cl)cc1 (stereo not given)
inactive: [11] 91 % of control | [12] 90 % of control | [8] 94 % of control

COC(=O)N1c2ccccc2N(C(=O)OC)c2c1oc1ccccc1c2=O
inactive: [15] 92 % of control | [16] 91 % of control | [17] 101 % of control

CCNCC(=O)Nc1ccc2c(c1)C(=O)c1ccc(NC(=O)CNCC)cc1C2=O
inactive: dose: 25.0 mg/kg/injection, schedule: Q04DX002 (ip), vehicle: saline with Tween-80 100 % of control | dose: 50.0 mg/kg/injection, schedule: Q04DX002 (ip), vehicle: saline with Tween-80 110 % of control | dose: 100.0 mg/kg/injection, schedule: Q04DX002 (ip), vehicle: saline with Tween-80 102 % of control | dose: 200.0 mg/kg/injection, schedule: Q04DX002 (ip), vehicle: saline with Tween-80 108 % of control and 93 % of control

Cc1n[nH]c(=O)c(N)c1-c1cc(-c2ccccc2)n[nH]1
inactive: [15] 91 % of control | [16] 94 % of control | [17] 93 % of control

COc1cc2ccc3c(c2cc1OC)C=[N+](C)CC3
inactive: dose: 44.0 mg/kg/injection, schedule: Q01DX009 (ip), vehicle: saline with Tween-80 100 % of control | dose: 66.0 mg/kg/injection, schedule: Q01DX009 (ip), vehicle: saline with Tween-80 109 % of control | [9] 109 % of control | dose: 150.0 mg/kg/injection, schedule: Q01DX009 (ip), vehicle: saline with Tween-80 113 % of control

CCCCOCN(CCCc1ccccc1)COCCCC
inactive: [11] 89 % of control | [12] 102 % of control | [8] 118 % of control

Cc1ccc(C(C)(C)C)cc1Br
inactive: dose: 100.0 mg/kg/injection, schedule: Q01DX001 (ip), vehicle: other 95 % of control | dose: 200.0 mg/kg/injection, schedule: Q01DX001 (ip), vehicle: other 100 % of control | dose: 400.0 mg/kg/injection, schedule: Q01DX001 (ip), vehicle: other 88 % of control

CCN(c1ccccc1)S(=O)(=O)c1cc(N)ccc1C
inactive: [14] 101 % of control | [1] 100 % of control | [2] 110 % of control | [3] 97 % of control | dose: 400.0 mg/kg/injection, schedule: Q01DX009 (ip), vehicle: Klucel (hydroxypropylcellulose) (HPC) 93 % of control

O=C(O)Cc1cccc(=O)c(O)c1C(=O)O
inactive: [18] 98 % of control | [19] 104 % of control | [20] 96 % of control

COc1ccccc1/C=N/N1C(=O)C2C3C=CC(O3)C2C1=O (stereo not given)
inactive: [18] 104 % of control | [19] 89 % of control | [20] 93 % of control

COC1=CCC2=C(CCN(C)C2Cc2ccc(OC)cc2)C1 (stereo not given)
inactive: dose: 12.5 mg/kg/injection, schedule: Q01DX005 (ip), vehicle: Klucel (hydroxypropylcellulose) (HPC) 97 % of control | dose: 25.0 mg/kg/injection, schedule: Q01DX005 (ip), vehicle: Klucel (hydroxypropylcellulose) (HPC) 96 % of control | [4] 100 % of control

O=c1c2c([nH]n1-c1ccccc1)-c1ccccc1CS2
inactive: [12] 105 % of control | [8] 104 % of control | [9] 117 % of control

CCCCOc1cccc2c(NCCCCCCCCNc3c4ccccc4nc4c(OCCCC)cccc34)c3ccccc3nc12
inactive: dose: 0.62 mg/kg/injection, schedule: Q## X009 (ip), vehicle: lactic acid 107 % of control | dose: 1.25 mg/kg/injection, schedule: Q## X009 (ip), vehicle: lactic acid 99 % of control | dose: 2.5 mg/kg/injection, schedule: Q## X009 (ip), vehicle: lactic acid 99 % of control | dose: 5.0 mg/kg/injection, schedule: Q## X009 (ip), vehicle: lactic acid 106 % of control | dose: 10.0 mg/kg/injection, schedule: Q## X009 (ip), vehicle: lactic acid 91 % of control

COc1ccc(/C=C/C(=O)C(C)(CN(C)C)CN(C)C)cc1
inactive: dose: 30.0 mg/kg/injection, schedule: Q01DX005 (ip), vehicle: saline 123 % of control | [21] 121 % of control

CC(SC(C)C(=O)N/N=C/c1ccc(C#N)cc1)C(=O)N/N=C\c1ccc(C#N)cc1 (stereo not given)
inactive: [22] 97 % of control | [23] 101 % of control | dose: 400.0 mg/kg/injection, schedule: Q01DX009 (ip), vehicle: suspension in saline 90 % of control

Cc1ccc2c(c1)C1(C)OC(C=CC1(C)O)O2 (stereo not given)
inactive: [18] 101 % of control | [19] 106 % of control | [20] 106 % of control

O=C(O)Cc1c(-c2ccccc2)n[nH]c1-c1[nH]nc(-c2ccccc2)c1CC(=O)O
inactive: dose: 60.0 mg/kg/injection, schedule: Q01DX005 (ip), vehicle: saline 95 % of control | [21] 95 % of control | dose: 240.0 mg/kg/injection, schedule: Q01DX005 (ip), vehicle: saline 104 % of control

CCOc1ccccc1NC(=S)Nc1ccccc1C(F)(F)F
inactive: [1] 109 % of control | [2] 100 % of control | [3] 100 % of control

CN(C)CCN(C(=O)C(O)(c1ccccc1)c1ccccc1)c1ccccc1
inactive: dose: 50.0 mg/kg/injection, schedule: Q01DX009 (ip), vehicle: saline 100 % of control | [6] 100 % of control | [7] 107 % of control

Cc1cc(N2C(=O)CCSC2=S)ccc1Cl
inactive: [13] 120 % of control | [14] 119 % of control | [1] 109 % of control and 114 % of control | dose: 50.0 mg/kg/injection, schedule: Q01DX009 (ip), vehicle: suspension in saline 97 % of control | [22] 90 % of control | [3] 102 % of control | [23] 92 % of control

Cc1ccccc1CS
inactive: [8] 113 % of control | [9] 113 % of control | [10] 113 % of control

CC(C)NCC(O)c1ccccc1Cl (stereo not given)
inactive: dose: 12.5 mg/kg/injection, schedule: Q01DX005 (ip), vehicle: saline with Tween-80 100 % of control | dose: 25.0 mg/kg/injection, schedule: Q01DX005 (ip), vehicle: saline with Tween-80 104 % of control | [18] 100 % of control and 90 % of control

CCCCCCCCCCCCCCCC(=O)N1CCN(C)CC1
inactive: [12] 115 % of control

COc1ccccc1/C=C(\C(=O)O)c1ccccc1
inactive: [4] 96 % of control | [5] 91 % of control

O=CNc1ccc(Cl)cc1C(=O)c1ccccc1
inactive: [1] 108 % of control | [2] 100 % of control | [3] 95 % of control

O=c1[nH]cc([N+](=O)[O-])cc1Cl
inactive: [18] 104 % of control | [19] 95 % of control
